Legend:
Assay type in all cases: in vitro ADME
[1] = Plasma stability assay, human plasma; conditions: for Plasma Stability 240 min hum [% remain.]: human plasma, 10 μM, 37° C.; for half-life at 10 μM: human, plasma
Method: (§1) 5. Plasma and Metabolic Stability Assays Example compounds were dissolved in DMSO/H2O 90:10 to a final concentration of 10 mM for plasma stability determination and metabolic stability determination. The assays were conducted according to literature precedents (F. P. Guengerich, Analysis and Characterization of Enzymes; in: Principles and Methods of Toxicology, A. W. Hayes (Ed.) Raven Press: New York, 1989, 777-813; R. Singh et al., In vitro metabolism of a potent HIV-protease inhibitor (141W94) using rat, monkey and human liver S9, Rapid Commun. Mass Spectrom. 1996, 10, 1019-1026). Plasma Stability Assay Human plasma (Blutspendedienst SRK, Basel) and CD-1 mouse plasma (mixed gender pool >50 animals, Innovative Research, Calif., USA) are both sodium citrate stabilized. The assay is performed in triplicates at 10 μM compound concentration and 37° C. Samples are taken at 0, 15, 30, 60, 120 and 240 minutes and stopped by precipitation with 3 volumes of acetonitrile/formic acid 98:2 and shaking (2 minutes, 600 rpm) followed by filtration (−20 mm Hg). The filtrate is collected. The filtrate (100 μL) is evaporated and reconstituted in the suitable solvent (cf. Table 33) to be analyzed by HPLC/MS/MS. The resulting peak area counts are expressed in percent of the 0 value and used to determine the endpoint stability in % and the half life T in minutes. In order to monitor assay integrity the degradation of propantheline is assayed with every experimental set.

[2] = Metabolic stability assay, CD-1 mouse microsomes; conditions: CD-1 mouse microsomes, 10 μM, 37° C.; for half-life at 10 μM: both sexes, 1 mg/ml protein, read-out: Metabolic Stability T ½ [min] mouse/(rat)
Method: (§2) 5. Plasma and Metabolic Stability Assays
(§3) Example compounds were dissolved in DMSO/H2O 90:10 to a final concentration of 10 mM for plasma stability determination and metabolic stability determination.
(§4) The assays were conducted according to literature precedents (F. P. Guengerich, Analysis and Characterization of Enzymes; in: Principles and Methods of Toxicology, A. W. Hayes (Ed.) Raven Press: New York, 1989, 777-813; R. Singh et al., In vitro metabolism of a potent HIV-protease inhibitor (141W94) using rat, monkey and human liver S9, Rapid Commun. Mass Spectrom. 1996, 10, 1019-1026).
(§5) Metabolic Stability Assay
(§6) Microsomes from a human 50 donor mixed gender pool and 1:1 mixtures of microsomes from CD-1 mouse single-gender pools are purchased from Celsis (Belgium). The enzymatic reaction is performed in a buffer containing an NADPH regeneration system and microsomes with the following end concentrations: 100 mM potassium phosphate buffer (all from Sigma), 1 mg/mL glucose-6-phosphate, 1 mg/mL β-nicotinamide adenine dinucleotide phosphate (NADP), 0.65 mg/mL magnesium chloride, 0.8 units/mL of glucose-6-phosphate dehydrogenase (prediluted with 5 mM citrate buffer), 10 μM compound and 1 mg/ml microsomal protein. Compounds are incubated at 37° C. in duplicates and samples are taken after 0, 5, 10, 20 and 60 minutes. After acetonitrile precipitation (3 volumes), shaking (2 minutes, 600 rpm) followed by centrifugation (10 minutes, 3200 g), the supernatant is dried reconstituted in the suitable solvent (cf. Table 33) and analyzed by HPLC/MS/MS. Metabolic turnover is expressed in % of the initial 0 minutes value and half life T½ (min) is calculated. Verapamil for human and propranolol for mouse are used as reference and are assayed with every experimental set.

[3] = Plasma stability assay, CD-1 mouse plasma; conditions: for Plasma Stability 240 min mouse/(rat) [% remain.]: CD-1 mouse plasma, 10 μM, 37° C.; for half-life at 10 μM: both sexes, CD-1, mouse, plasma
Method: as §1

[4] = Metabolic stability assay, human liver microsomes; conditions: human microsomes, 10 μM, 37° C.; for half-life at 10 μM: both sexes, liver microsomes, 1 mg/ml protein, read-out: Metabolic Stability T ½ [min] hum
Method: as §2, §3, §4, §5, §6

Plasma Stability 240 min hum [% remain.] [1] | half-life at 10 μM [1] | Metabolic Stability 60 min mouse/(rat) [% remain.] [2] | half-life at 10 μM [2] | Plasma Stability 240 min mouse/(rat) [% remain.] [3] | half-life at 10 μM [3] | half-life at 10 μM [4] | Metabolic Stability 60 min hum [% remain.] [4] | SMILES
100 % remain. | > 4 h | 71 % remain. | > 60 min | 78 % remain. | > 4 h | 32 min | 26 % remain. | COc1ccc2c(c1)-c1cccc(c1)C(=O)N(C)[C@H](C(=O)N1CCCC1)CCC(=O)N[C@H](C)CO2 [Ex. 46, (10R,15S)-4-methoxy-10,16-dimethyl-15-(1-pyrrolidinylcarbonyl)-8-oxa-11,16-diazatricyclo[16.3.1.0^2,7]docosa-1(22),2,4,6,18,20-hexaene-12,17-dione]
99 % remain. | > 4 h | 100 % remain. | > 60 min | 86 % remain. | > 4 h | > 60 min | 83 % remain. | COc1ccc2c(c1)-c1cccc(c1)C(=O)N(C)[C@H](C(=O)NCCN(C)C)CCC(=O)N[C@H](C)CO2 [Ex. 47, (10R,15S)-N-[2-(dimethylamino)ethyl]-4-methoxy-10,16-dimethyl-12,17-dioxo-8-oxa-11,16-diazatricyclo[16.3.1.0^2,7]docosa-1(22),2,4,6,18,20-hexaene-15-carboxamide]
95 % remain. | > 4 h | 92 % remain. | > 60 min | 76 % remain. | > 4 h | > 60 min | 100 % remain. | COc1ccc2c(c1)-c1cccc(c1)C(=O)N(C)[C@H](C(=O)NCCCN)CCC(=O)N[C@H](C)CO2 [Ex. 49, (10R,15S)-N-(3-aminopropyl)-4-methoxy-10,16-dimethyl-12,17-dioxo-8-oxa-11,16-diazatricyclo[16.3.1.0^2,7]docosa-1(22),2,4,6,18,20-hexaene-15-carboxamide]
100 % remain. | > 4 h | 69 % remain. | > 60 min | 80 % remain. | > 4 h | > 60 min | 71 % remain. | COCCNC(=O)[C@@H]1CCC(=O)N[C@H](C)COc2ccc(OC)cc2-c2cccc(c2)C(=O)N1C [Ex. 51, (10R,15S)-4-methoxy-N-(2-methoxyethyl)-10,16-dimethyl-12,17-dioxo-8-oxa-11,16-diazatricyclo[16.3.1.0^2,7]docosa-1(22),2,4,6,18,20-hexaene-15-carboxamide]
99 % remain. | > 4 h | 78 % remain. | > 60 min | 95 % remain. | > 4 h | > 60 min | 100 % remain. | COc1ccc2c(c1)-c1cccc(c1)C(=O)N(C)[C@H](C(=O)NC1CC1)CCC(=O)N[C@H](C)CO2 [Ex. 52, (10R,15S)-N-cyclopropyl-4-methoxy-10,16-dimethyl-12,17-dioxo-8-oxa-11,16-diazatricyclo[16.3.1.0^2,7]docosa-1(22),2,4,6,18,20-hexaene-15-carboxamide]
100 % remain. | > 4 h | 82 % remain. | > 60 min | 100 % remain. | > 4 h | > 60 min | 60 % remain. | COc1ccc2c(c1)-c1cccc(c1)C(=O)N(C)[C@H](C(=O)NCC(C)C)CCC(=O)N[C@H](C)CO2 [Ex. 54, (10R,15S)-N-isobutyl-4-methoxy-10,16-dimethyl-12,17-dioxo-8-oxa-11,16-diazatricyclo[16.3.1.0^2,7]docosa-1(22),2,4,6,18,20-hexaene-15-carboxamide]

Source: patent US10017481B2, “Conformationally constrained, fully synthetic macrocyclic compounds” (POLYPHOR AG, priority 2012, dated 2018)
